Measured values taken from BindingDB's records for patent US10022376 (Pfizer, 2018).

Key:
Assay in all cases: JAK Caliper Enzyme Assay at 1 mM ATP
Conditions in all cases: pH 7.4; 25 °C
[1] = target: Non-receptor tyrosine-protein kinase TYK2 (Homo sapiens, UniProt P29597)
Procedure: (§1) Test article was solubilized in dimethyl sulfoxide (DMSO) to a stock concentration of 30 mM. An 11-point half log dilution series was created in DMSO with a top concentration of 600 μM. […] The compound plates were diluted 1 to 60 resulting in a top final assay compound concentration of 10 μM and a 2% DMSO concentration.Test article and assay controls were added to a 384-well plate. Reaction mixtures contained 20 mM HEPES, pH 7.4, 10 mM magnesium chloride, 0.01% bovine serum albumin (BSA), 0.0005% Tween 20, 1 mM ATP and 1 μM peptide substrate. […] Enzyme concentrations and incubation times were optimized for each new enzyme preps and were modified slightly over time to ensure 20%-30% phosphorylation. The assays were stopped with a final concentration of 10 mM EDTA, 0.1% Coating Reagent and 100 mM HEPES, pH=7.4. The assay plates were placed on a Caliper Life Science Lab Chip 3000 (LC3000) instrument, and each well was sampled using appropriate separation conditions to measure the unphosphorylated and phosphorylated peptide.

[2] = target: Tyrosine-protein kinase JAK2 (Homo sapiens, UniProt O60674)
Tyrosine-protein kinase JAK2, sequence (O60674 whole entry): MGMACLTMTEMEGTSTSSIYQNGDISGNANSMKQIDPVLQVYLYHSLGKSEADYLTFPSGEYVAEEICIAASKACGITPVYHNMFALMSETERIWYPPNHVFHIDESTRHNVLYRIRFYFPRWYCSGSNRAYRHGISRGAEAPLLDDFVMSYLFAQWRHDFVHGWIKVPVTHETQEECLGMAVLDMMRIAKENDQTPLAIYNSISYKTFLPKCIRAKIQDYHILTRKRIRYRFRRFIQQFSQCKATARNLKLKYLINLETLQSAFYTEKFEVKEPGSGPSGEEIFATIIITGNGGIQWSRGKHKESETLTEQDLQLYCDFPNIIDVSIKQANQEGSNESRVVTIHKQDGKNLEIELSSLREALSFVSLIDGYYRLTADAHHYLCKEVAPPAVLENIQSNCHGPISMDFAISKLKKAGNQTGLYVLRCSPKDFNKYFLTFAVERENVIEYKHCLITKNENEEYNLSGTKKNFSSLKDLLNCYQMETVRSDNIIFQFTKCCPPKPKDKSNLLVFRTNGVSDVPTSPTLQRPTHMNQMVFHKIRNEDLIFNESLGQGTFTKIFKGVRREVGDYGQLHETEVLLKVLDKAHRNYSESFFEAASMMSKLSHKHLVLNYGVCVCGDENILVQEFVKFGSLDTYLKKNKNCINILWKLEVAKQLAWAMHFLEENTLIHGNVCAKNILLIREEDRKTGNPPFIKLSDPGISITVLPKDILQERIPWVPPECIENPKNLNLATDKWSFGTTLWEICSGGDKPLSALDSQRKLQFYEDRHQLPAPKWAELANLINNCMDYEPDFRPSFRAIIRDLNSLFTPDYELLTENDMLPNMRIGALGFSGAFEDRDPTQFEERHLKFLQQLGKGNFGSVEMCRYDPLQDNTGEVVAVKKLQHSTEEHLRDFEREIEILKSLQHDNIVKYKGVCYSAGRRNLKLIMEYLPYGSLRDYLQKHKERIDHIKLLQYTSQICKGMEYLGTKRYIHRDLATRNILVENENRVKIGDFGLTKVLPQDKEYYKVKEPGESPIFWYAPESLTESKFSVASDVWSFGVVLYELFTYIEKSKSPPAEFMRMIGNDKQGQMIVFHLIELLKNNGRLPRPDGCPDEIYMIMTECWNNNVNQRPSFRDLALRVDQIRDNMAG
Procedure: as §1

[3] = target: Tyrosine-protein kinase JAK1 (Homo sapiens, UniProt P23458)
Tyrosine-protein kinase JAK1, sequence (P23458 whole entry): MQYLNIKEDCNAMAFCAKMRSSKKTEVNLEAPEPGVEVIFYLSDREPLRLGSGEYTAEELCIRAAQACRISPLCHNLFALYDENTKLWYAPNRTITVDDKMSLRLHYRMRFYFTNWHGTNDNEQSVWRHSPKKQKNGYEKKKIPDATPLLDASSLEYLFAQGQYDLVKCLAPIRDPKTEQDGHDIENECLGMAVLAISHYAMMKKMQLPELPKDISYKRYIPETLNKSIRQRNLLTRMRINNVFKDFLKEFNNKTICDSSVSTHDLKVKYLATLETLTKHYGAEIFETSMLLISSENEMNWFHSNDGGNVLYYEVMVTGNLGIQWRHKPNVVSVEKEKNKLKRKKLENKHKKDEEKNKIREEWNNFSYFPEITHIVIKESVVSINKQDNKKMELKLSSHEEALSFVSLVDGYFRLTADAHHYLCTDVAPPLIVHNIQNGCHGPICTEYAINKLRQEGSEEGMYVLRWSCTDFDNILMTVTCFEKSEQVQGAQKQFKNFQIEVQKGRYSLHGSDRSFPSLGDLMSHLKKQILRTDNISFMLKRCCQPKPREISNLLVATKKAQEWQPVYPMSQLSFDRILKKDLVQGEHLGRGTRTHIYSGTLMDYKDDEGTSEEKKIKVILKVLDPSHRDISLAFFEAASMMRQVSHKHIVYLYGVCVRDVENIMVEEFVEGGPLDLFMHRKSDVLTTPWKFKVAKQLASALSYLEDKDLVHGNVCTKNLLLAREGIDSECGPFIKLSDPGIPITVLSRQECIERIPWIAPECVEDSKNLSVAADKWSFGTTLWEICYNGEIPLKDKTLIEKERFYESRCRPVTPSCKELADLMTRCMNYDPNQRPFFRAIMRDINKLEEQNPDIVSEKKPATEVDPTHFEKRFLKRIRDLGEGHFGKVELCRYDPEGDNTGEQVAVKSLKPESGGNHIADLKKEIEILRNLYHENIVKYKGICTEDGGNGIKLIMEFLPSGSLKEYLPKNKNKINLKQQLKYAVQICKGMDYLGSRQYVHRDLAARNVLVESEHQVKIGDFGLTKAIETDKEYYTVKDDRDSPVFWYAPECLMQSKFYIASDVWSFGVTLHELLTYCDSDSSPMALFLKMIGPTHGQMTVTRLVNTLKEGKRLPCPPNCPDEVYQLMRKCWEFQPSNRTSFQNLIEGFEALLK
Procedure: as §1

[4] = target: T1, Tyrosine-protein kinase JAK3 (Homo sapiens, UniProt P52333)
T1 sequence (P52333 whole entry): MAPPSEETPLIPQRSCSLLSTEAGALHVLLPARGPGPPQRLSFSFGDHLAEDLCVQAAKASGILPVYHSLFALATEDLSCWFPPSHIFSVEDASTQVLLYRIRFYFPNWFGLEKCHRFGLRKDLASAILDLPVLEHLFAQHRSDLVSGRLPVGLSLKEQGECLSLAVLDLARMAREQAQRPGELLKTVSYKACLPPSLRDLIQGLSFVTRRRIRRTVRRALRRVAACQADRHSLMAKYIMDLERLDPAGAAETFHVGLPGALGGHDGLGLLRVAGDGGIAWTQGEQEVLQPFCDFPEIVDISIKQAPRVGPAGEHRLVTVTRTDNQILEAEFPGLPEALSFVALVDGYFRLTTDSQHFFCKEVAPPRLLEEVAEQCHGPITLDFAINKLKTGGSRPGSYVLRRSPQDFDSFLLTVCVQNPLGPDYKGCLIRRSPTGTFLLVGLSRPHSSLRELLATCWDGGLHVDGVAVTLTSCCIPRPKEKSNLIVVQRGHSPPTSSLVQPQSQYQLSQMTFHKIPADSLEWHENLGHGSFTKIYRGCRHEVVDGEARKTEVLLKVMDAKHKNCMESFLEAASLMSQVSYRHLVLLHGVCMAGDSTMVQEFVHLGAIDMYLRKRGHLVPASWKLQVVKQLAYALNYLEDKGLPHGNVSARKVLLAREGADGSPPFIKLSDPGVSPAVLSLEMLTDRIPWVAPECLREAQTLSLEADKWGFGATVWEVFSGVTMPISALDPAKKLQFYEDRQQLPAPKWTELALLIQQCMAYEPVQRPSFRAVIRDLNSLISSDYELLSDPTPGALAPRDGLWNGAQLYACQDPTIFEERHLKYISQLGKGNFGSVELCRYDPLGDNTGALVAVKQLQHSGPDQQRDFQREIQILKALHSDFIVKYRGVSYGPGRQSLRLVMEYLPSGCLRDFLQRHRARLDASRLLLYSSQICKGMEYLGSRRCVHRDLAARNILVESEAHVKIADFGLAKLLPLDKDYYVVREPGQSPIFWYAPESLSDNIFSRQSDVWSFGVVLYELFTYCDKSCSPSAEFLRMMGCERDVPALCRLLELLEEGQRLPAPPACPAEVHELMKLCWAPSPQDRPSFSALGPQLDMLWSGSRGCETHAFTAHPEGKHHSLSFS
Procedure: as §1

Non-receptor tyrosine-protein kinase TYK2, sequence (P29597 whole entry): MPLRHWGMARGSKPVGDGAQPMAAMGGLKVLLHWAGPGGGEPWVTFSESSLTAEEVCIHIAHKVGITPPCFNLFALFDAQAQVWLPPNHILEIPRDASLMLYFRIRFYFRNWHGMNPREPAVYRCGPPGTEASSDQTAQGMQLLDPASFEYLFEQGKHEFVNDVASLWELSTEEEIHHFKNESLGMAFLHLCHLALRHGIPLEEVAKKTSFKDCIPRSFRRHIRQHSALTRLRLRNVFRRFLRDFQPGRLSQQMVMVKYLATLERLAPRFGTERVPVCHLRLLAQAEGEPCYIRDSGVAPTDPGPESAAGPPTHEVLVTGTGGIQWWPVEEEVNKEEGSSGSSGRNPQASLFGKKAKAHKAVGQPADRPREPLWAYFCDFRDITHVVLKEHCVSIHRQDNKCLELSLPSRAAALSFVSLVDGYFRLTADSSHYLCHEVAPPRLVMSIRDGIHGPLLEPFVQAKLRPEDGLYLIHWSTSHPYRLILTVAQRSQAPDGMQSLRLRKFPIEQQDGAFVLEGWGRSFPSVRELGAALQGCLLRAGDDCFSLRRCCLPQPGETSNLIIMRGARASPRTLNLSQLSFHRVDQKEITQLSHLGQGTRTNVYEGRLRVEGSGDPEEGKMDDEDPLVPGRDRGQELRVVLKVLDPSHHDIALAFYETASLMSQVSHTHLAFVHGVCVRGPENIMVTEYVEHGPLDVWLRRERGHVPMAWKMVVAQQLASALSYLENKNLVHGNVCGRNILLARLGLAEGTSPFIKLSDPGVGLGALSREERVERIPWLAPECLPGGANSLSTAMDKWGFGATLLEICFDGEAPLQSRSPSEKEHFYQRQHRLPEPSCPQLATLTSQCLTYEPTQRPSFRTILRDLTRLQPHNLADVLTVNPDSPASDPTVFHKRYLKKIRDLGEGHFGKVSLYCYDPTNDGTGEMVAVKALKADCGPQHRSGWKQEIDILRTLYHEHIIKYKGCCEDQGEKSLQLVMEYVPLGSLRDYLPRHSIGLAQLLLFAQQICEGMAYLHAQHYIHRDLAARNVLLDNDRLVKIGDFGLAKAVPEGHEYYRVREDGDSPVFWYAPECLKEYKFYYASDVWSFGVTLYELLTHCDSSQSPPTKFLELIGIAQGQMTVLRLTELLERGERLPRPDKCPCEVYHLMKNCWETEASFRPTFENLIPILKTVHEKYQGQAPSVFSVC

SMILES | IC50 [1] | IC50 [2] | IC50 [3] | IC50 [4]
CN(C)CCNC(=O)N1CCc2[nH]c(-c3n[nH]c4nc(-c5cc(F)c(O)cc5CC(F)(F)F)nc(NCc5cc(O)ccc5N(C)S(C)(=O)=O)c34)nc2C1 [US10022376, Example 110] | 0.035 µM | 0.0269 µM | 0.0054 µM | 
CN(c1ccc(O)cc1CNc1nc(-c2cc(F)c(O)cc2CC(F)(F)F)nc2[nH]nc(C(=O)Nc3ccc(NCCO)nc3)c12)S(C)(=O)=O [US10022376, Example 169] | 0.306 µM |  | 0.0105 µM | 0.0598 µM
CN(c1ccc(O)cc1CNc1nc(-c2cc(F)c(O)cc2CC(F)(F)F)cc2[nH]nc(C(=O)Nc3ccc(NCCO)nc3)c12)S(C)(=O)=O [US10022376, Example 164] | 0.0242 µM | 0.0222 µM | 0.0045 µM | 0.091 µM
CCN(c1ccc(O)cc1CNc1nc(-c2cc(F)c(O)cc2CC(F)(F)F)nc2[nH]nc(C(=O)NC)c12)S(=O)(=O)c1ccccc1 [US10022376, Example 75] | 1.94 µM | 0.321 µM | 0.0611 µM | 0.755 µM
CN(c1ccccc1CNc1nc(-c2cc(F)c(O)cc2CC(F)(F)F)cc2[nH]nc(C(N)=O)c12)S(C)(=O)=O [US10022376, Example 98] |  |  |  | 0.0396 µM
CN(c1cc(O)ccc1CNc1nc(-c2cc(F)c(O)cc2CC(F)(F)F)cc2[nH]nc(C(N)=O)c12)S(C)(=O)=O [US10022376, Example 99] | 0.426 µM |  | 0.0068 µM | 
CNC(=O)c1n[nH]c2nc(-c3cc(F)c(O)cc3CC(F)(F)F)nc(NCc3ccccc3N(CCO)S(C)(=O)=O)c12 [US10022376, Example 100] | 1.15 µM | 0.0323 µM | 0.0087 µM | 
CC(=O)N1CCc2[nH]c(-c3n[nH]c4nc(-c5cc(F)c(O)cc5CC(F)(F)F)nc(NCc5cc(O)ccc5N(C)S(C)(=O)=O)c34)nc2C1 [US10022376, Example 105] | 0.014 µM | 0.0144 µM |  | 0.0512 µM
CCN(c1ccc(O)cc1CNc1nc(-c2cc(F)c(O)cc2CC(F)(F)F)nc2[nH]nc(C(N)=O)c12)S(=O)(=O)c1ccccc1 [US10022376, Example 97] | 2.19 µM |  | 0.0551 µM | 
CNC(=O)c1n[nH]c2nc(-c3cc(F)c(O)cc3CC(F)(F)F)nc(NCc3nccnc3N(C)S(C)(=O)=O)c12 [US10022376, Example 106] | 6.11 µM | 0.283 µM | 0.0412 µM | 
CN(c1ccc(O)cc1CNc1nc(-c2cc(F)c(O)cc2CC(F)(F)F)nc2[nH]nc(C(N)=O)c12)S(=O)(=O)c1ccccc1 [US10022376, Example 96] | 1.73 µM |  |  | 0.248 µM
